Data: the supplement of paper PMC11061612

Tests used:
Test in all cases: Bliss excess, mean over the matrix (fraction); higher = more synergy
[1] = test system: ATN-1 (T-Lymphoblastic Leukemia)
Outline: (§1)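 After 24 hours at 37°C and 5% CO2 in 1536-well plates, cells in DMEM/F12 or RPMI plus 10% FBS received two-drug dose matrices for 72 hours. Viability came from CellTiter-Glo 2.0 luminescence and was scaled as inhibition, anchored at 0 by vehicle wells and at 1 by blank wells. Combination Emax is taken as the second-highest inhibition in the matrix, and Bliss excess as the observed combination effect less EA + EB − EA·EB, with EA and EB the single-agent effects.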

[2] = test system: BT-474 (Breast Carcinoma)
Outline: as §1

[3] = test system: C2BBe1 (Colorectal Carcinoma)
Outline: as §1

C32 (Melanoma) = test system: C32 (Melanoma)
Outline: as §1

[4] = test system: CAL-85-1 (Breast Carcinoma)
Outline: as §1

[5] = test system: COR-L105 (Lung Adenocarcinoma)
Outline: as §1

[6] = test system: IGROV-1 (Ovarian Carcinoma)
Outline: as §1

[7] = test system: JURL-MK1 (Chronic Myelogenous Leukemia)
Outline: as §1

[8] = test system: L-363 (Plasma Cell Myeloma)
Outline: as §1

MG-63 (Osteosarcoma) = test system: MG-63 (Osteosarcoma)
Outline: as §1

[9] = test system: NCI-H1435 (Non-Small Cell Lung Carcinoma)
Outline: as §1

[10] = test system: NCI-H1944 (Lung Adenocarcinoma)
Outline: as §1

[11] = test system: NCI-H2009 (Lung Adenocarcinoma)
Outline: as §1

NCI-H2452 (Mesothelioma) = test system: NCI-H2452 (Mesothelioma)
Outline: as §1

[12] = test system: NTERA-2-cl-D1 (Other Solid Carcinomas)
Outline: as §1

[13] = test system: OCI-M1 (Acute Myeloid Leukemia)
Outline: as §1

[14] = test system: SBC-3 (Small Cell Lung Carcinoma)
Outline: as §1

[15] = test system: SW1463 (Colorectal Carcinoma)
Outline: as §1

[16] = test system: TK (B-Cell Non-Hodgkin's Lymphoma)
Outline: as §1

SMILES	Bliss excess [1]	Bliss excess [2]	Bliss excess [3]	Bliss excess (C32 (Melanoma))	Bliss excess [4]	Bliss excess [5]	Bliss excess [6]	Bliss excess [7]	Bliss excess [8]	Bliss excess (MG-63 (Osteosarcoma))	Bliss excess [9]	Bliss excess [10]	Bliss excess [11]	Bliss excess (NCI-H2452 (Mesothelioma))	Bliss excess [12]	Bliss excess [13]	Bliss excess [14]	Bliss excess [15]	Bliss excess [16]
Cc1c2c(nn1C)CSCc1cc(n(C)n1)CSc1cc(c3ccccc3c1)OCCCc1c(C(=O)O)n(C)c3c-2c(Cl)ccc13 [AZD5991] + Cc1cc2ncnn2cc1Nc1ncc2c(n1)n(C1CCOCC1)c(=O)n2C [AZD7648] (first compound max 1 µM, 7x7, partner max 10 µM)	-0.0513	-0.0305	-0.0449	-0.0308	-0.055	-0.0645	-0.103	-0.0227	0.0345	-0.0265	-0.0055	-0.039	-0.0188	-0.0065	-0.0697	-0.001	-0.0801	-0.015	-0.0046
Cc1c2c(nn1C)CSCc1cc(n(C)n1)CSc1cc(c3ccccc3c1)OCCCc1c(C(=O)O)n(C)c3c-2c(Cl)ccc13 [AZD5991] + CC1(C)CCC(CN2CCN(c3ccc(C(=O)NS(=O)(=O)c4ccc(NCC5CCOCC5)c([N+](=O)[O-])c4)c(Oc4cnc5[nH]ccc5c4)c3)CC2)=C(c2ccc(Cl)cc2)C1 [Venetoclax] (first compound max 1 µM, 7x7, partner max 1 µM)	0.0429	-0.0279	0.0031	0.0147	-0.0296	-0.043	-0.0326	-0.0133	0.0519	0.0034	0.0174	0.0091	-0.0158	-0.0471	0.0217	-0.0076	0.0727	-0.0589	0.174
Cc1c2c(nn1C)CSCc1cc(n(C)n1)CSc1cc(c3ccccc3c1)OCCCc1c(C(=O)O)n(C)c3c-2c(Cl)ccc13 [AZD5991] + C1CN(CCC1(C(=O)N[C@@H](CCO)C2=CC=C(C=C2)Cl)N)C3=NC=NC4=C3C=CN4 [Capivasertib] (first compound max 1 µM, 7x7, partner max 3 µM)	0.0208	0.0359	-0.0214	0.0009	-0.0289	-0.0019	0.0239	0.0028	0.0476	-0.0384	0.0331	0.0254	-0.0207	-0.0146	–	-0.0105	-0.0316	-0.0085	-0.0039
CCN(CCO)CCCOc1ccc2c(Nc3cc(CC(=O)Nc4cccc(F)c4)[nH]n3)ncnc2c1 [AZD2811] + C=CCn1c(=O)c2cnc(Nc3ccc(N4CCN(C)CC4)cc3)nc2n1-c1cccc(C(C)(C)O)n1 [AZD1775] (first compound max 1 µM, partner max 1 µM)	0.0053	-0.0442	0.024	-0.0354	-0.0258	-0.0415	-0.0034	-0.0001	-0.0312	-0.0052	-0.0181	0.0422	0.0477	-0.0387	0.192	0.058	0.11	-0.0023	0.0069
CC1(C)CCC(CN2CCN(c3ccc(C(=O)NS(=O)(=O)c4ccc(NCC5CCOCC5)c([N+](=O)[O-])c4)c(Oc4cnc5[nH]ccc5c4)c3)CC2)=C(c2ccc(Cl)cc2)C1 [Venetoclax] + C[C@@H]1COCCN1C2=NC(=NC(=C2)C3(CC3)[S@](=N)(=O)C)C4=C5C=CNC5=NC=C4 [AZD6738] (first compound max 1 µM, 7x7, partner max 10 µM)	-0.0216	-0.0265	-0.0092	-0.0229	-0.0195	-0.0429	-0.0075	0.0005	0.0331	-0.0758	-0.014	-0.0023	-0.0357	-0.0034	-0.0238	-0.0106	-0.0906	-0.06	0.0223
Cc1c2c(nn1C)CSCc1cc(n(C)n1)CSc1cc(c3ccccc3c1)OCCCc1c(C(=O)O)n(C)c3c-2c(Cl)ccc13 [AZD5991] + CN(C)CCCOc1ccc(-c2ccc3ncc4c(c3c2)n(C2CCOCC2)c(=O)n4C)cn1 [AZD0156] (first compound max 1 µM, 7x7, partner max 1 µM)	0.0058	0.0064	0.0009	-0.0076	-0.0542	-0.0139	-0.0297	-0.0403	0.0235	–	0.0719	0.0049	-0.0204	0.0366	-0.0123	-0.0097	-0.0128	-0.0212	0.0046
